From PubChem BioAssay (NCI)
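Assay format: 96-well plates, 48-hour exposure. GI50 is the concentration that inhibits growth by half. TGI denotes the concentration required for complete inhibition of growth.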

Key:
Assay in all cases: DTP human tumour cell line panel, 48 h
[1] = test system: M14 melanoma
[2] = test system: ACHN renal
[3] = test system: HCC-2998 colon
[4] = test system: SNB-75 CNS
[5] = test system: K-562 leukemia
[6] = test system: SF-539 CNS
[7] = test system: SW-620 colon
[8] = test system: UACC-62 melanoma
[9] = test system: U251 CNS
[10] = test system: NCI/ADR-RES ovarian

| Structure (SMILES) | TGI [1] | TGI [2] | TGI [3] | TGI [4] | TGI [5] | TGI [6] | TGI [7] | TGI [8] | TGI [9] | TGI [10] | GI50 [1] | GI50 [2] | GI50 [4] | GI50 [5] | GI50 [6] | GI50 [7] | GI50 [8] | GI50 [3] | GI50 [10] | GI50 [9] |
| --- | --- | --- | --- | --- | --- | --- | --- | --- | --- | --- | --- | --- | --- | --- | --- | --- | --- | --- | --- | --- |
| C/C=C(/CCC1NCCC2c3ccccc3NC12)[Si](C)(C)C (stereo unspecified) | 11.8 µM | 27.2 µM | 3.61 µM | 21.4 µM | 7.7 µM | 29.5 µM | 9.68 µM | 26.4 µM | 25.4 µM | – | – | – | – | – | – | – | – | – | – | – |
| O=S(=O)(c1ccc(Br)cc1)N1CCN(S(=O)(=O)c2ccc(Br)cc2)CC1 | > 100 µM | > 100 µM | – | > 100 µM | > 100 µM | – | > 100 µM | > 100 µM | > 100 µM | > 100 µM | – | – | – | – | – | – | – | – | – | – |
| C[C@]12CCC[C@H](O)[C@H]1C[C@H](CO)CC2 | > 100 µM | > 100 µM | > 100 µM | > 100 µM | > 100 µM | > 100 µM | > 100 µM | > 100 µM | > 100 µM | – | – | – | – | – | – | – | – | – | – | – |
| CCC(CCC(C)C1CCC2C3CC=C4CC(OC5OC(CO)C(O)C(O)C5O)CCC4(C)C3CCC12C)C(C)C (stereo unspecified) | > 100 µM | > 100 µM | > 100 µM | – | – | > 100 µM | > 100 µM | > 100 µM | > 100 µM | > 100 µM | – | – | – | – | – | – | – | – | – | – |
| Cc1cc(=O)n2c3c(c4c(cc13)c(CO)cc(=O)n4C)OC2 | > 100 µM | 63.5 µM | 44.8 µM | 70.5 µM | 97.7 µM | 51.5 µM | > 100 µM | 25.9 µM | > 100 µM | – | – | – | – | – | – | – | – | – | – | – |
| CC(=O)[CH-]C(=O)c1ccccc1.CC(=O)[CH-]C(=O)c1ccccc1.CC1(C)OCC(C2OC3OC(C)(C)OC3C2[O-])O1.CC1(C)OCC(C2OC3OC(C)(C)OC3C2[O-])O1.[Ti+4] (stereo unspecified) | 37.6 µM | 38.1 µM | – | 28.5 µM | 71.4 µM | 28 µM | 29.7 µM | 39.6 µM | – | – | 16.1 µM | 16.4 µM | 11 µM | 14.2 µM | 13.6 µM | 10.7 µM | 16.9 µM | – | – | – |
| CCOC(=O)C1=C(C)N(Cc2ccccc2)C(=O)C1CC#N (stereo unspecified) | > 100 µM | > 100 µM | > 100 µM | > 100 µM | > 100 µM | > 100 µM | > 100 µM | > 100 µM | > 100 µM | – | – | – | – | – | – | – | – | – | – | – |
| COc1ccc2c(c1)C1OCCNC1CC2 (stereo unspecified) | > 100 µM | > 100 µM | – | > 100 µM | > 100 µM | > 100 µM | > 100 µM | > 100 µM | > 100 µM | > 100 µM | – | – | – | – | – | – | – | – | – | – |
| CCN(CC)CCOc1ccc(/C=C2\C[C@H]3[C@H]4CC=C5C[C@@H](O)CC[C@]5(C)[C@H]4CC[C@]3(C)[C@H]2O)cc1OC | 16.8 µM | 17.4 µM | 20.6 µM | – | 32 µM | 9.82 µM | 11.7 µM | 14.5 µM | 17.3 µM | 22 µM | 6.12 µM | 9.23 µM | – | 8.09 µM | 1.43 µM | 1.93 µM | 7.53 µM | 11.6 µM | 9.98 µM | 9.53 µM |
| C1COCCOCCOCCOCCOCCO1.[Cl][Sn]([Cl])([c]1ccccc1)[c]1ccccc1 | 12.4 µM | 22.8 µM | 18.9 µM | 19.6 µM | 10.2 µM | 8.53 µM | 3.28 µM | 4.12 µM | 6.81 µM | – | 4.25 µM | 10.9 µM | 5.19 µM | 2.44 µM | 2.94 µM | 1.65 µM | 1.86 µM | 6.06 µM | – | 2.65 µM |
| COc1ccc2c(c1)[n+]([O-])c(-c1ccc(Br)cc1)c(N)[n+]2[O-] | – | > 100 µM | – | > 100 µM | > 100 µM | > 100 µM | > 100 µM | – | > 100 µM | – | – | – | – | – | – | – | – | – | – | – |
| CO[C@]12C=C/C(=C(/C(=O)OCc3cccnc3)C(=O)CCCCCCCC[C@@]3(OC)C=C/C(=C(/C(=O)OCc4cccnc4)C(=O)CCCCCCCC1)O3)O2 | 3.79 µM | > 50 µM | 1.84 µM | 4.05 µM | > 50 µM | 7.91 µM | 6.75 µM | – | 8.58 µM | > 50 µM | 1.2 µM | 1.3 µM | 1.18 µM | 1.46 µM | 1.64 µM | 1.62 µM | – | 0.979 µM | 1.56 µM | 1.66 µM |
| CNc1cc2nc3cc(NC)c(C)cc3cc2cc1C | 14.1 µM | 20.8 µM | 14.7 µM | 19.4 µM | > 100 µM | 16.2 µM | – | 34.5 µM | – | 9.28 µM | 2.24 µM | 0.965 µM | 3.75 µM | 0.486 µM | 2.06 µM | – | 8.82 µM | 1.6 µM | 1.69 µM | – |
| COC(=O)NC(=Nc1ccc(Oc2ccccc2)cc1NC=O)NC(=O)OC | > 100 µM | > 100 µM | 5.27 µM | > 100 µM | > 100 µM | 2.49 µM | > 100 µM | > 100 µM | 1.21 µM | – | – | – | – | – | – | – | – | – | – | – |
| O=C(NNc1ccc(F)cc1)C1CCC(CNS(=O)(=O)c2ccc(Cl)c(Cl)c2)CC1 (stereo unspecified) | > 50 µM | 13.4 µM | – | – | > 50 µM | 39.1 µM | > 50 µM | 23.4 µM | > 50 µM | 31.5 µM | 7.49 µM | 4.08 µM | – | 1.71 µM | 9.77 µM | 9.03 µM | 1.98 µM | – | 8.79 µM | 10.3 µM |
| COC(=O)C1=Cc2cc(OC)c(OC)cc2[C@H](c2ccc(OC)c(OC)c2)C1C(=O)OC (stereo partly specified) | > 100 µM | > 100 µM | > 100 µM | > 100 µM | > 100 µM | > 100 µM | > 100 µM | > 100 µM | > 100 µM | – | – | – | – | – | – | – | – | – | – | – |
| O=c1c2cccc(F)c2sc2c(N3CCNCC3)nc3ccccc3c12 | 3.17 µM | 2.43 µM | 3.13 µM | 2.41 µM | – | 3.11 µM | 2.28 µM | 3.16 µM | 2.96 µM | 3.21 µM | 1.71 µM | 1.19 µM | 1.16 µM | – | 1.71 µM | 0.974 µM | 1.66 µM | 1.48 µM | 1.6 µM | 1.39 µM |
| Cc1cc(Cl)ccc1NC(=O)CCCC(=O)C1CCC/C1=N\NC(=O)CC#N (stereo unspecified) | > 100 µM | > 100 µM | – | > 100 µM | > 100 µM | > 100 µM | > 100 µM | > 100 µM | > 100 µM | – | – | – | – | – | – | – | – | – | – | – |
